By inhibition is commonly meant how much of the control response was suppressed.

From ChEMBL document CHEMBL4806963, “Antagonistic peptides for frizzled-1 and frizzled-2” (2013) come the findings set out here.

In test [1] the test system is Mus musculus. Kind of test: Cardioprotective activity against myocardial infarction Swiss mouse model assessed as increase in alpha-SMA protein expression in heart at 6 ug/kg/day, sc via osmotic pumps for 5 weeks by western blot analysis. It counts as functional, organism-based. The following applies: dose 6.0 µg/kg/day. For orientation: A western blot detects proteins with antibodies after separation by electrophoresis.

Test [2] addresses Frizzled-1 (Homo sapiens) (UniProt Q9UP38). The test can be described thus: Antagonist activity at frizzled-1 (unknown origin) expressed in rat C-FIT cells assessed as inhibition of Wnt3a-stimulated cell differentiation changes by measuring alpha-smooth muscle actin gene expression at 10 nM by quantitative RT-PCR analysis. The note with it: filed as antagonist. It counts as functional, cell-based.

In test [3] the target is Frizzled-2 (Homo sapiens) (UniProt Q14332). The test can be described thus: Antagonist activity at Wnt3a-stimulated frizzled-2 (unknown origin) expressed in human HEK293superTOP flash cells incubated for 24 hrs by luciferase reporter gene assay. It counts as functional, cell-based. The following applies: HEK293, filed as antagonist. (Reporter assays use an easily measured gene product as a stand-in for the process of interest.)

The target of test [4] is Frizzled-2 (Mus musculus) (UniProt Q9JIP6). The test can be described thus: Antagonist activity at Wnt3a-stimulaed mouse frizzled-2 expressed in human HEK293superTOP flash cells incubated for 24 hrs by luciferase reporter gene assay. The class given is cell-based. The following applies: HEK293, filed as antagonist.
For test [5], the target named is Frizzled-1 (Rattus norvegicus) (UniProt Q08463). Kind of test: Agonist activity at rat frizzled-1 expressed in human HEK293superTOP flash cells by luciferase reporter gene assay. The class given is cell-based. The note with it: HEK293.
The target of test [6] is Frizzled-2 (Homo sapiens) (UniProt Q14332). Kind of test: Antagonist activity at Wnt3a-stimulaed frizzled-2 (unknown origin) expressed in human HEK293superTOP flash cells at 1 nM incubated for 24 hrs by luciferase reporter gene assay (reference value: 0%). It counts as functional, cell-based. The following applies: HEK293, filed as antagonist.
The target of test [7] is Frizzled-1 (Rattus norvegicus) (UniProt Q08463). The test can be described thus: Antagonist activity at Wnt3a-stimulated rat frizzled-1 expressed in human HEK293superTOP flash cells at 10 nM incubated for 24 hrs by luciferase reporter gene assay relative to control. The following applies: HEK293, filed as antagonist. It counts as cell-based.
For test [8], the system named is Mus musculus. Kind of test: Cardioprotective activity against myocardial infarction Swiss mouse model assessed as increase in myofibroblast number at 6 ug/kg/day, sc via osmotic pumps for 5 weeks by immunohistochemical staining analysis. The class given is functional, organism-based. The note with it: dose 6.0 µg/kg/day.
In test [9] the target is Frizzled-1 (Homo sapiens) (UniProt Q9UP38). The test can be described thus: Antagonist activity at frizzled-1 (unknown origin) expressed in rat C-FIT cells assessed as inhibition of Wnt5a-stimulated cell differentiation changes by measuring alpha-smooth muscle actin gene expression at 10 nM by quantitative RT-PCR analysis. It counts as functional, cell-based. The following applies: filed as antagonist.

The test system of test [10] is Mus musculus. The test can be described thus: Cardioprotective activity against myocardial infarction Swiss mouse model assessed as reduction in collagen level in infarct area at 6 ug/kg/day, sc via osmotic pumps for 5 weeks by immunohistochemical staining analysis. The class given is functional, organism-based. The note with it: dose 6.0 µg/kg/day.
For test [11], the system named is Mus musculus. The test can be described thus: Cardioprotective activity against myocardial infarction Swiss mouse model assessed as increase in alpha-SMA gene expression in heart at 6 ug/kg/day, sc via osmotic pumps for 5 weeks by qPCR analysis. The class given is functional, organism-based. The following applies: dose 6.0 µg/kg/day. Background: Quantitative PCR measures a nucleic acid by following its amplification.

Calls of active or inactive are those of the source. No cut-off for these calls is given here. Where a SMILES comes first, the peptide text is derived from it.

Frizzled-1 (Homo sapiens), sequence (Q9UP38 70-647 limits assumed): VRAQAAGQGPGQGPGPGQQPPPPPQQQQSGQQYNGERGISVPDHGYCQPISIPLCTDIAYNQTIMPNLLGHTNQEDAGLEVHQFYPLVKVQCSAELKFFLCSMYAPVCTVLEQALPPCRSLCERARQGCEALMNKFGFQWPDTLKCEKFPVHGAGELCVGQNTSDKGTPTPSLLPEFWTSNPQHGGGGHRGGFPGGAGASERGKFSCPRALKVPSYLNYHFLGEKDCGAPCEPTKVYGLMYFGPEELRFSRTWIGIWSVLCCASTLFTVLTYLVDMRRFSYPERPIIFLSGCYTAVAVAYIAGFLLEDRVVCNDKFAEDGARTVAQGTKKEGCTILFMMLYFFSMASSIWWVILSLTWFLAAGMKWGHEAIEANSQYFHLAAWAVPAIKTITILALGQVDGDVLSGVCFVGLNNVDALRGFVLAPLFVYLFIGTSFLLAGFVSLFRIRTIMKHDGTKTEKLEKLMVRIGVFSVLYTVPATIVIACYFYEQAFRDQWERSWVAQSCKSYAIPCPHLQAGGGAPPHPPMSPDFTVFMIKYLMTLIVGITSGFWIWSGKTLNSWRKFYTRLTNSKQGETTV
Frizzled-1 (Rattus norvegicus), sequence (Q08463 whole entry): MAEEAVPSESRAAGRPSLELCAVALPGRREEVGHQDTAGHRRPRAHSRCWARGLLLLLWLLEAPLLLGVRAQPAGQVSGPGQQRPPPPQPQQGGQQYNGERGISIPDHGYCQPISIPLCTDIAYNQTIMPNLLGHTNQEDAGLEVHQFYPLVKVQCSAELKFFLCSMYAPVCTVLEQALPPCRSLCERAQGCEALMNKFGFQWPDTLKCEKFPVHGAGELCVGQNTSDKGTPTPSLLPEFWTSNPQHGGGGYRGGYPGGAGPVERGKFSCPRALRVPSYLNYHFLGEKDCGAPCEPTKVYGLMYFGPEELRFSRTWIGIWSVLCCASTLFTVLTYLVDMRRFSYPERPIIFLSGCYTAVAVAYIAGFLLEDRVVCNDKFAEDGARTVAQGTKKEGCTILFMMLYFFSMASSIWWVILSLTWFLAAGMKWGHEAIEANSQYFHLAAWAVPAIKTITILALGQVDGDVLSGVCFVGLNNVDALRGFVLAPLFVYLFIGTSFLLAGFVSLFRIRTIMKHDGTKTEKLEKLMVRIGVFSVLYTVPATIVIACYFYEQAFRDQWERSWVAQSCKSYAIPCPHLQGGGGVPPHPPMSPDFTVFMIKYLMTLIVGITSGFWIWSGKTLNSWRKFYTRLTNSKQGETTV
Frizzled-2 (Homo sapiens), sequence (Q14332 24-565 limits assumed): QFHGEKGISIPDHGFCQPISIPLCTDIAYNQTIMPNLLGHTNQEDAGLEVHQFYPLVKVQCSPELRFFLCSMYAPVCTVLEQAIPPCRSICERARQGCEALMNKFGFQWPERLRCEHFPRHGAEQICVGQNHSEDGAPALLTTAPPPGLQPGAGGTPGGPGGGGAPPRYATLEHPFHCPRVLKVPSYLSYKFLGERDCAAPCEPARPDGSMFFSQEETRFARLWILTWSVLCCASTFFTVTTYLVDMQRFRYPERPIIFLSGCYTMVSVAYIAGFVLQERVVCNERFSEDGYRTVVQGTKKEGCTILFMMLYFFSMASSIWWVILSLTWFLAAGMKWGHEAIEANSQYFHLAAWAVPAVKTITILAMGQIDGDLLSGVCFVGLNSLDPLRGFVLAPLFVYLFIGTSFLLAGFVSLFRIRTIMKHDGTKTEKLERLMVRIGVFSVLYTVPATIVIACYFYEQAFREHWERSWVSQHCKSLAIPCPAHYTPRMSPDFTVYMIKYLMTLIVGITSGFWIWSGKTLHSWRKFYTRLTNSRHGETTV
Frizzled-2 (Mus musculus), sequence (Q9JIP6 whole entry, looked up): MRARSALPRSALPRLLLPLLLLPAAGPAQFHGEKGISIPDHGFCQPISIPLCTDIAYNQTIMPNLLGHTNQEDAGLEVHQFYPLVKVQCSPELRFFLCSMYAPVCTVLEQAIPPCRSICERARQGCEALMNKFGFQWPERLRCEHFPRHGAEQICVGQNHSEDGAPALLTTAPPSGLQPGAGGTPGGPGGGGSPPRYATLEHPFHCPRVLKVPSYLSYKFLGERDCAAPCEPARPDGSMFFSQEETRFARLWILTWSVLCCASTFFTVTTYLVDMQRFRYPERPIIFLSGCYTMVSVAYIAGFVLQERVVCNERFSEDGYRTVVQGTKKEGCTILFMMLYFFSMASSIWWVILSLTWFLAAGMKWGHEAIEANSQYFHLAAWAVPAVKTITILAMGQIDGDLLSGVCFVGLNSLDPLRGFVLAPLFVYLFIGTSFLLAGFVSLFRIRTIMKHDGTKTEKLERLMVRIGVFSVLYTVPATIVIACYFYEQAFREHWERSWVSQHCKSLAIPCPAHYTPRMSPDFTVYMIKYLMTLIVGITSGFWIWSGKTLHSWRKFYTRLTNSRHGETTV

Consider `CSCC[C@H](NC(=O)CNC(=O)[C@H](CCC(=O)O)NC(=O)[C@H](CO)NC(=O)[C@@H](NC(=O)[C@H](CCCCN)NC(=O)[C@H](CC(N)=O)NC(=O)[C@H](CS)NC(C)=O)[C@@H](C)O)C(=O)N[C@@H](CC(=O)O)C(=O)NCC(=O)N[C@@H](CS)C(=O)N[C@@H](CCC(=O)O)C(=O)N[C@@H](CC(C)C)C(N)=O` (Ac-CNKTSEGMDGCEL-NH2), for which the outcome in the test on Mus musculus [1], with Mus musculus [8], in the test with Mus musculus [10] and in the test on Mus musculus [11] was Active. For the same molecule, the inhibition in [2] was 100%; in test [3], “Dose-Dependent Effect”; in test [6], 61.2%; in [7] it was 100%; in test [9], 100%. Also, the inhibition entry in [4] was “Active”. For the same molecule, the result in test [5] was inactive.
